Laboratory results from patent publication US10399940B2, “Substituted pyrrolidines and methods of use” (AbbVie S.à.r.l., priority 2016, dated 2019).
pEC50: −log10 of the molar value. Like-named read-outs stand apart in the source and are kept apart here.

Target: T1, F508delCFTR (Homo sapiens, UniProt P13569, DEL508-508)
T1 construct: expressed in transfected cells; host or cells: CFBE41o- (human lung derived epithelial cell line), doxycycline-inducible expression
Experiment: Cell Surface Expression-Horse Radish Peroxidase (CSE-HRP) assay
Type: cell-based
Conditions: CFBE41o-F508delCFTR-HRP cells; for Maximum % activity (with co-corrector): with co-corrector (2 μM); for Maximum % activity (with co-corrector) / Maximum % activity (without co-corrector): normalized to on-plate positive control, highest concentration 20 μM
Method in brief: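 Surface F508delCFTR-HRP was read by luminol luminescence after 18–24 h compound exposure at 33 °C, without or with 2 μM co-corrector. Doses were eight 3-fold steps from 20 μM, in doxycycline-induced (0.5 μg/mL, 72 h) CFBE41o- cells. % activity was scaled to the on-plate 2 μM positive control minus DMSO; EC50 came from a variable-slope sigmoid fit.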

[1] = test compound without co-corrector, 18-24 hours at 33° C., read-out: EC50 (without co-corrector)
[2] = with co-corrector (2 μM of 3-[(2R,4R)-4-({[1-(2,2-difluoro-1,3-benzodioxol-5-yl)cyclopropyl]carbonyl}amino)-7-methoxy-3,4-dihydro-2H-chromen-2-yl]benzoic acid), read-out: EC50 (with co-corrector)

T1 sequence (P13569 with tags, fused parts or gaps DEL508-508): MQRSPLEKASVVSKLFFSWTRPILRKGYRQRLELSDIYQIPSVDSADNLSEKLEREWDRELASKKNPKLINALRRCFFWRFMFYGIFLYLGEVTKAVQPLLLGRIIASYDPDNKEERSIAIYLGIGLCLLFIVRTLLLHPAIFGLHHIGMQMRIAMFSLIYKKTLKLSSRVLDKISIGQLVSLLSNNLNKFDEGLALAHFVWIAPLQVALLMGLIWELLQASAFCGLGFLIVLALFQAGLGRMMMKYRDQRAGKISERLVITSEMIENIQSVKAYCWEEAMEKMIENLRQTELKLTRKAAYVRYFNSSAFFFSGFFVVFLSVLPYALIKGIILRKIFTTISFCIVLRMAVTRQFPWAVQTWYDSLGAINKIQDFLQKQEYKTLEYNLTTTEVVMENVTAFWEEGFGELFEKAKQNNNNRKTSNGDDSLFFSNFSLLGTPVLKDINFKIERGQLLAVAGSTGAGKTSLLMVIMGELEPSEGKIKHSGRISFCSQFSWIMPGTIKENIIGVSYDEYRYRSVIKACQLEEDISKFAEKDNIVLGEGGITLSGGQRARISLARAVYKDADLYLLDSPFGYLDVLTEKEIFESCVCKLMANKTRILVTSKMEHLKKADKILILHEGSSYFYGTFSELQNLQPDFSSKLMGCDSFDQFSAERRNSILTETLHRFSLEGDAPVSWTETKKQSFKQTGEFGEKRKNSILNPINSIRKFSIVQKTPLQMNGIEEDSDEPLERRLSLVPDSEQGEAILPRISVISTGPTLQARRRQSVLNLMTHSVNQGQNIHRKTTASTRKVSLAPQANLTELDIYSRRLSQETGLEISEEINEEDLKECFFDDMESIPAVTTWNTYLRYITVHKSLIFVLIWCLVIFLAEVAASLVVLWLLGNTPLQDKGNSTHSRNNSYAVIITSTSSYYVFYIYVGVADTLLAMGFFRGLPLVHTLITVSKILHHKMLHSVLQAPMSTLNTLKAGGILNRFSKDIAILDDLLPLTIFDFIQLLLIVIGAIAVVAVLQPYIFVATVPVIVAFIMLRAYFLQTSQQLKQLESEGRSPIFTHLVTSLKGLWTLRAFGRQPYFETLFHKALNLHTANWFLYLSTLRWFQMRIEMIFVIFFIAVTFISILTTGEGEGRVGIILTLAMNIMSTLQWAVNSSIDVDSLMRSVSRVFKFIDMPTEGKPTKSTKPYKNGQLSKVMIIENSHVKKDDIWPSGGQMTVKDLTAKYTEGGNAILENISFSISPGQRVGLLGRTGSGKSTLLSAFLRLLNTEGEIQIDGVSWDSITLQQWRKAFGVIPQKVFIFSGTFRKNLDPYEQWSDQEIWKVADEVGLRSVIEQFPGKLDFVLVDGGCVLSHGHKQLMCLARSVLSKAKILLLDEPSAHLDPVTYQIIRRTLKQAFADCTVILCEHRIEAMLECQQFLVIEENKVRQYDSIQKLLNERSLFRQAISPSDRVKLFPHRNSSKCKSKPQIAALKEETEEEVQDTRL

| Structure (SMILES) | pEC50 [1] | pEC50 [2] | Maximum % activity (with co-corrector) | Maximum % activity (without co-corrector) |
| --- | --- | --- | --- | --- |
| COc1ncc(C(F)(F)F)cc1CO[C@H]1[C@H](C(C)(C)C)[C@@H](C(=O)O)N(C(=O)[C@@H]2CCCCO2)[C@H]1c1cccc2ccoc12 [Example 212, (2S,3R,4S,5S)-5-(1-benzofuran-7-yl)-3-tert-butyl-4-{[2-methoxy-5-(trifluoromethyl)pyridin-3-yl]methoxy}-1-[(2S)-oxane-2-carbonyl]pyrrolidine-2-carboxylic acid] | 5.00 to 6.00 | 5.00 to 6.00 | +++ (≥350) | ++ (≥100 and <200) |
| COc1ncc(C(F)(F)F)cc1CO[C@H]1[C@H](C(C)(C)C)[C@@H](C(=O)O)N(C(=O)[C@@H]2CCCCO2)[C@H]1c1ccccc1CC(C)C [Example 213, (2S,3R,4S,5S)-3-tert-butyl-4-{[2-methoxy-5-(trifluoromethyl)pyridin-3-yl]methoxy}-5-[2-(2-methylpropyl)phenyl]-1-[(2S)-oxane-2-carbonyl]pyrrolidine-2-carboxylic acid] | 5.00 to 6.00 | > 6.00 | +++ (≥350) | +++ (≥200) |
| COc1cccc(S(=O)(=O)N2[C@H](C(=O)O)[C@@H](C(C)(C)C)[C@H](OCc3cc(C4CCC4)cnc3OC)[C@@H]2c2ccccc2C2CC2)n1 [Example 214, (2S,3R,4S,5S)-3-tert-butyl-4-[(5-cyclobutyl-2-methoxypyridin-3-yl)methoxy]-5-(2-cyclopropylphenyl)-1-(6-methoxypyridine-2-sulfonyl)pyrrolidine-2-carboxylic acid] | 5.00 to 6.00 | 5.00 to 6.00 | ++ (≥150 and <350) | + (<100) |
| COc1ccc(C2(C)CCC2)cc1CO[C@H]1[C@H](C(C)(C)C)[C@@H](C(=O)O)N(C(=O)[C@@H]2CCCCO2)[C@H]1c1ccccc1C [Example 215, (2S,3R,4S,5S)-3-tert-butyl-4-{[2-methoxy-5-(1-methylcyclobutyl)phenyl]methoxy}-5-(2-methylphenyl)-1-[(2S)-oxane-2-carbonyl]pyrrolidine-2-carboxylic acid] | > 6.00 | > 6.00 | +++ (≥350) | +++ (≥200) |
| COc1ncc(C(F)(F)F)cc1CO[C@H]1[C@H](C(C)(C)C)[C@@H](C(=O)O)N(C(=O)[C@@H]2CCCCO2)[C@H]1c1cccc2c1OCC2 [Example 216, (2S,3R,4S,5S)-3-tert-butyl-5-(2,3-dihydro-1-benzofuran-7-yl)-4-{[2-methoxy-5-(trifluoromethyl)pyridin-3-yl]methoxy}-1-[(2S)-oxane-2-carbonyl]pyrrolidine-2-carboxylic acid] | 5.00 to 6.00 | > 6.00 | +++ (≥350) | + (<100) |
| COc1ncc(C2CC2)cc1CO[C@H]1[C@H](C(C)(C)C)[C@@H](C(=O)O)N(C(=O)[C@@H]2CCCCO2)[C@H]1c1ccccc1C [Example 217, (2S,3R,4S,5S)-3-tert-butyl-4-[(5-cyclopropyl-2-methoxypyridin-3-yl)methoxy]-5-(2-methylphenyl)-1-[(2S)-oxane-2-carbonyl]pyrrolidine-2-carboxylic acid] | 5.00 to 6.00 | > 6.00 | +++ (≥350) | +++ (≥200) |
| COc1ncc(C2CCC2)cc1CO[C@H]1[C@H](C(C)(C)C)[C@@H](C(=O)O)N(C(=O)[C@@H]2CCCCO2)[C@H]1c1cccc2c1CCCC2 [Example 218, (2S,3R,4S,5S)-3-tert-butyl-4-[(5-cyclobutyl-2-methoxypyridin-3-yl)methoxy]-1-[(2S)-oxane-2-carbonyl]-5-(5,6,7,8-tetrahydronaphthalen-1-yl)pyrrolidine-2-carboxylic acid] | > 6.00 | > 6.00 | +++ (≥350) | +++ (≥200) |
